Experimental data taken from ChEMBL document CHEMBL1141167, “Antitumor activity of new substituted 3-(5-imidazo[2,1-b]thiazolylmethylene)-2-indolinones and study of their effect on the cell cycle” (2005).
Where “and” joins values, the source holds several entries; their conditions need not be identical. Identical values can stand only once.

Legend:
[1] = test system: Prostate cell; assay: Growth inhibitory concentration dissolved in DMSO against human Prostate cell line at 10E-4 M concentration; type: functional
[2] = test system: Ovarian carcinoma cell; assay: Growth inhibitory concentration dissolved in DMSO against human Ovarian cell line at 10E-4 M concentration; type: functional
[3] = test system: Colon cell; assay: Cytotoxic effect dissolved in DMSO against Colon cell line at 10E-4 M concentration; type: functional, Homo sapiens
[4] = test system: Leukemia cell; assay: Cytotoxic effect dissolved in DMSO against Leukemia cell line at 10E-4 M concentration; type: functional, Homo sapiens
[5] = test system: Panel NCI-60 (60 carcinoma cell lines); assay: Growth inhibitory concentration dissolved in DMSO against human MG-MID cell line at 10E-4 M concentration; type: functional
[6] = test system: NSCLC; assay: Growth inhibitory concentration dissolved in DMSO against human NSCLC cell line at 10E-4 M concentration; type: functional; set-up: unit not given here
[7] = test system: Melanoma cell; assay: Total growth inhibition of human Melanoma cell line at 10E-4 M concentration; type: functional
[8] = test system: Colon cell; assay: Growth inhibitory concentration dissolved in DMSO against human Colon cell line at 10E-4 M concentration; type: functional
[9] = test system: Melanoma cell; assay: Cytotoxic effect dissolved in DMSO against Melanoma cell line at 10E-4 M concentration; type: functional, Homo sapiens
[10] = test system: HT-29; assay: Percentage of Cells after administration of compound dissolved in DMSO (10e-7M) towards colon adenocarcinoma cell line HT-29 in G2/M Phase after 24 Hours of Treatment [control = 12.8]; type: functional, Homo sapiens
[11] = test system: Renal cell; assay: Growth inhibitory concentration dissolved in DMSO against human Renal cell line at 10E-4 M concentration; type: functional; set-up: unit not given here
[12] = test system: Melanoma cell; assay: Growth inhibitory concentration dissolved in DMSO against human Melanoma cell line at 10E-4 M concentration; type: functional
[13] = test system: Leukemia cell; assay: Total growth inhibition of human Leukemia cell line at 10E-4 M concentration; type: functional
[14] = test system: Panel NCI-60 (60 carcinoma cell lines); assay: Cytotoxic effect dissolved in DMSO against MG-MID cell line at 10E-4 M concentration; type: functional, Homo sapiens
[15] = test system: Prostate cell; assay: Total growth inhibition of human Prostate cell line at 10E-4 M concentration; type: functional
[16] = test system: HT-29; assay: Percentage of Cells after administration of compound dissolved in DMSO (10e-8 M) towards colon adenocarcinoma cell line HT-29 in G2/M Phase after 24 Hours of Treatment [control = 12.8]; type: functional, Homo sapiens
[17] = test system: NSCLC; assay: Cytotoxic effect dissolved in DMSO against NSCLC cell line at 10E-4 M concentration; type: functional, Homo sapiens
[18] = test system: Ovarian carcinoma cell; assay: Total growth inhibition of human Ovarian cell line at 10E-4 M concentration; type: functional
[19] = test system: Colon cell; assay: Total growth inhibition of human Colon cell line at 10E-4 M concentration; type: functional; set-up: unit not given here
[20] = test system: CNS cell; assay: Cytotoxic effect dissolved in DMSO against CNS cell line at 10E-4 M concentration; type: functional, Homo sapiens
[21] = test system: HT-29; assay: Percentage of Cells after administration of compound dissolved in DMSO (10e-6 M) towards colon adenocarcinoma cell line HT-29 in G2/M Phase after 24 Hours of Treatment [control = 12.8]; type: functional, Homo sapiens
[22] = test system: Breast carcinoma cell; assay: Growth inhibitory concentration dissolved in DMSO against human Breast cell line at 10E-4 M concentration; type: functional
[23] = test system: Panel NCI-60 (60 carcinoma cell lines); assay: Total growth inhibition of human MG-MID cell line at 10E-4 M concentration; type: functional
[24] = test system: Breast carcinoma cell; assay: Total growth inhibition of human Breast cell line at 10E-4 M concentration; type: functional
[25] = test system: HT-29; assay: Percentage of Cells after administration of compound dissolved in DMSO (10e-4 M) towards colon adenocarcinoma cell line HT-29 in G2/M Phase after 24 Hours of Treatment [control = 12.8]; type: functional, Homo sapiens
[26] = test system: CNS cell; assay: Growth inhibitory concentration dissolved in DMSO against human CNS cell line at 10E-4 M concentration; type: functional
[27] = test system: NSCLC; assay: Total growth inhibition of human NSCLC cell line at 10E-4 M concentration; type: functional
[28] = test system: HT-29; assay: Percentage of Cells after administration of compound dissolved in DMSO (10e-5 M) towards colon adenocarcinoma cell line HT-29 in G2/M Phase after 24 Hours of Treatment [control = 12.8]; type: functional, Homo sapiens

Cc1cn2c(/C=C3/C(=O)Nc4ccc(O)cc43)c(C)nc2s1
pGI50 (negative log molar GI50) [1]: 5.52 | pGI50 (negative log of GI50 in M) [2]: 5.16 | LC50 [3]: 4.03 | LC50 [4]: 4.47 | GI50 [5]: 5.48 | GI50 [6]: 5.4 | TGI [7]: 4.5 | pGI50 (negative log of molar GI50) [8]: 5.78 | LC50 [9]: 4.08 | Activity [10]: 13.6% | GI50 [11]: 5.3 | pGI50 (-log molar GI50) [12]: 5.41 | TGI [13]: 5.11 | LC50 [14]: 4.05 | TGI [15]: 4.42 | Activity [16]: 12.2% | LC50 [17]: 4.02 | TGI [18]: 4.09 | TGI [19]: 4.35 and 4.5 | LC50 [20]: 4.02 | Activity [21]: 13.4% | pGI50 (-log GI50, M) [22]: 5.56 | TGI [23]: 4.44 | TGI [24]: 4.66 | Activity [25]: 75.2% | pGI50 (-log GI50, M) [26]: 5.41 | TGI [27]: 4.36 | Activity [28]: 72.7%
